Data from patent US12329757B2, “Methods for increasing sepiapterin plasma exposure” (PTC Therapeutics MP, Inc., priority 2018, dated 2025).
Where two headings read alike, the source gives them in different places.

Legend:
[1] = Pharmacokinetic parameters for BH4 after single dose of sepiapterin or BH4 in fasted subjects; type: in vivo
Description: Six subjects received sepiapterin in each group and three subjects received BH4 in each group where this treatment was administered. Table 5. Summary of pharmacokinetic parameters for BH4 after administration of single dose of sepiapterin or BH4 in fasted subjects.
Values shown are means of plasma concentrations of BH4 following administration at the doses shown.

[2] = Food effect on administration of sepiapterin: plasma concentrations of BH4 and sepiapterin in fasted and fed subjects; type: in vivo; conditions: sepiapterin 10 mg/kg oral
Description: Method: Subjects received 2 oral doses of sepiapterin (10 mg/kg) separated by 1 week in a fasted and fed state. Subjects were fed a standard high-fat (approximately 50 percent of total caloric content of the meal) and high-calorie (approximately 800 to 1000 calories) meal starting 30 minutes prior to receiving their second oral dose of sepiapterin on Day 8.
Sampling for PK analysis occurred predose on Days 1 and 8 (within 30 minutes before dosing) and 0.5 hr, 1 hr, 2 hr, 4 hr, 8 hr, 12 hr, and 24 hr after the doses on Days 1 and 8. The blood concentrations of sepiapterin and BH4 were analyzed by MNG Labs.

[3] = fasted vs fed prior to administration

C[C@H](O)C(=O)C1=Nc2c(nc(N)[nH]c2=O)NC1 [sepiapterin, Sepiapterin]
much lower: Cmax of BH4 in the plasma, fasted compared to fed [2, 3]
much higher: AUC0-24 of BH4, sepiapterin compared to BH4 administration [1] | AUC0-inf of BH4, sepiapterin compared to BH4 administration [1] | Cmax of sepiapterin in the plasma, fasted compared to fed [2, 3]
0 nM: Sepiapterin Concentration in Plasma, Mean ([2]; fasted, 0 h (predose)) | Sepiapterin Concentration in Plasma, Median ([2]; fasted, 0 h (predose)) | concentration at 24 h ([2]; fasted, 0 h (predose), read-out: Sepiapterin Concentration in Plasma, Maximum) | concentration at 2 h ([2]; fasted, 0 h (predose), read-out: Sepiapterin Concentration in Plasma, Minimum) | Sepiapterin Concentration in Plasma, Mean ([2]; fasted, 8 h) | Sepiapterin Concentration in Plasma, Median ([2]; fasted, 8 h) | concentration at 2 h ([2]; fasted, 8 h, read-out: Sepiapterin Concentration in Plasma, Minimum) | Sepiapterin Concentration in Plasma, Mean ([2]; fasted, 12 h) | Sepiapterin Concentration in Plasma, Median ([2]; fasted, 12 h) | concentration at 2 h ([2]; fasted, 12 h, read-out: Sepiapterin Concentration in Plasma, Minimum) | Sepiapterin Concentration in Plasma, Mean ([2]; fasted, 24 h) | Sepiapterin Concentration in Plasma, Median ([2]; fasted, 24 h) | concentration at 2 h ([2]; fasted, 24 h, read-out: Sepiapterin Concentration in Plasma, Minimum) | Sepiapterin Concentration in Plasma, Mean ([2]; fed, 0 h (predose)) | Sepiapterin Concentration in Plasma, Median ([2]; fed, 0 h (predose)) | concentration at 24 h ([2]; fed, 0 h (predose), read-out: Sepiapterin Concentration in Plasma, Maximum) | Sepiapterin Concentration in Plasma, Median ([2]; fed, 0.5 h) | concentration at 2 h ([2]; fed, 0.5 h, read-out: Sepiapterin Concentration in Plasma, Minimum) | concentration at 2 h ([2]; fed, 4 h, read-out: Sepiapterin Concentration in Plasma, Minimum) | Sepiapterin Concentration in Plasma, Median ([2]; fed, 8 h) | concentration at 2 h ([2]; fed, 8 h, read-out: Sepiapterin Concentration in Plasma, Minimum) | Sepiapterin Concentration in Plasma, Mean ([2]; fed, 12 h) | Sepiapterin Concentration in Plasma, Median ([2]; fed, 12 h) | concentration at 24 h ([2]; fed, 12 h, read-out: Sepiapterin Concentration in Plasma, Maximum) | concentration at 2 h ([2]; fed, 12 h, read-out: Sepiapterin Concentration in Plasma, Minimum) | Sepiapterin Concentration in Plasma, Mean ([2]; fed, 24 h) | Sepiapterin Concentration in Plasma, Median ([2]; fed, 24 h) | concentration at 24 h ([2]; fed, 24 h, read-out: Sepiapterin Concentration in Plasma, Maximum) | concentration at 2 h ([2]; fed, 24 h, read-out: Sepiapterin Concentration in Plasma, Minimum) | concentration at 0.5 h ([2]; human, plasma, fasted, 0.5 h, read-out: Sepiapterin Concentration in Plasma, Minimum) | concentration at 4 h ([2]; human, plasma, fasted, 4 h, read-out: Sepiapterin Concentration in Plasma, Minimum) | concentration at 8 h ([2]; human, plasma, fasted, 8 h, read-out: Sepiapterin Concentration in Plasma, Maximum) | concentration at 12 h ([2]; human, plasma, fasted, 12 h, read-out: Sepiapterin Concentration in Plasma, Maximum) | concentration at 24 h ([2]; human, plasma, fasted, 24 h, read-out: Sepiapterin Concentration in Plasma, Maximum) | concentration at 0 h ([2]; human, plasma, fed, 0 h (predose), read-out: Sepiapterin Concentration in Plasma, Minimum) | concentration at 1 h ([2]; human, plasma, fed, 1 h, read-out: Sepiapterin Concentration in Plasma, Minimum) | concentration at 2 h ([2]; human, plasma, fed, 2 h, read-out: Sepiapterin Concentration in Plasma, Minimum)
